Assay results taken from patent US6737383B1, “Herbicidal oxadiazolidines” (priority 1999, dated 2004).

How the values were obtained:
cocklebur = experiment: Test B pre/postemergence cocklebur; assay type: in vivo, Xanthium strumarium
Outline: (§1)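 Herbicidal effect was estimated by eye on a ten-point control scale after plants spent twelve to sixteen days in a greenhouse following soil or foliar treatment. Foliar sprays targeted plants at one to four leaves; all doses were formulated in a non-phytotoxic solvent with surfactant.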

pigweed = experiment: Test B pre/postemergence pigweed; assay type: in vivo, Amaranthus retroflexus
Outline: as §1

sugar beet = experiment: Test B pre/postemergence sugar beet; assay type: in vivo, Beta vulgaris
Outline: as §1

bamyardgrass = experiment: Test B flood test barnyardgrass; assay type: in vivo, Echinochloa crus-galli; settings: for Barnyardgrass plant response rating (0 to 10 scale, 0 is no effect, 10 is complete control): Rate 125 g/ha, under heading Pre-emergence; for Barnyardgrass plant response rating (0 to 10 scale, 0 is no effect, 10 is complete control) / Plant response rating, Barnyardgrass (0 to 10 scale, 0 is no effect, 10 is complete control): visual evaluation after twelve to sixteen days; for Plant response rating, Barnyardgrass (0 to 10 scale, 0 is no effect, 10 is complete control): Rate 62 g/ha
Outline: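 Flood test on plants grown to the 2-leaf stage; treated plants kept in greenhouse twelve to sixteen days, then visually rated against controls on a 0 (no effect) to 10 (complete control) scale.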

[1] = Postemergence, Rate 250 g/ha, scale 0 to 10
[2] = Postemergence, Rate 500 g/ha, scale of 0 to 10 where 0 is no effect and 10 is complete control
[3] = Postemergence, Rate 1000 g/ha, scale 0 to 10 (0 no effect, 10 complete control)
[4] = Preemergence, Rate 125 g/ha, scale of 0 to 10 where 0 is no effect and 10 is complete control
[5] = Preemergence, Rate 250 g/ha, scale 0 to 10, 0 is no effect, 10 is complete control
[6] = Preemergence, Rate 500 g/ha, scale 0 to 10, 0 is no effect, 10 is complete control
[7] = Rate 125 g/ha, Postemergence, scale 0 to 10, 0 is no effect, 10 is complete control
[8] = Rate 1000 g/ha, Preemergence, scale 0 to 10 (0 no effect, 10 complete control)
[9] = Rate 250 g/ha, Pre-emergence (flood test species), scale 0 to 10, 0 is no effect, 10 is complete control
[10] = Rate 500 g/ha, Pre-emergence, flood test species, scale 0 to 10 (0 no effect, 10 complete control)
[11] = Preemergence, Rate 62 g/ha, scale of 0 to 10 where 0 is no effect and 10 is complete control
[12] = Rate 62 g/ha, Postemergence, scale 0 to 10 (0 no effect, 10 complete control)
[13] = flood test species, Pre-emergence

SMILES | Cocklebur plant response rating (cocklebur; [1]) | Cocklebur plant response rating (cocklebur; [2]) | Plant response rating, Cocklebur (cocklebur; [4]) | Cocklebur plant response rating (cocklebur; [5]) | Cocklebur plant response rating (cocklebur; [6]) | Cocklebur plant response rating (cocklebur; [7]) | Redroot pigweed plant response rating (pigweed; [1]) | Plant response rating, Redroot pigweed (pigweed; [4]) | Redroot pigweed plant response rating (pigweed; [5]) | Redroot pigweed plant response rating (pigweed; [6]) | Redroot pigweed plant response rating (pigweed; [7]) | Sugarbeets plant response rating (sugar beet; [1]) | Plant response rating, Sugarbeets (sugar beet; [4]) | Sugarbeets plant response rating (sugar beet; [5]) | Sugarbeets plant response rating (sugar beet; [6]) | Sugarbeets plant response rating (sugar beet; [7]) | Barnyardgrass plant response rating (0 to 10 scale, 0 is no effect, 10 is complete control) (bamyardgrass; flood test species) | Barnyardgrass plant response rating (bamyardgrass; [9]) | Barnyardgrass plant response rating (bamyardgrass; [10]) | Plant response rating, Cocklebur (cocklebur; [11]) | other results
CCOP(=O)(Cn1c(=O)on(C(=O)N(c2ccccc2)C(C)C)c1=O)OCC [Compound 447] | 0 | 0 | 0 | 0 | 0 | 0 | 0 | 0 | 0 | 0 | 0 | 0 | 0 | 0 | 0 | 0 | 0 | 0 | 0 | – | Cocklebur plant response rating (cocklebur; [3]): 0; Plant response rating, Cocklebur (cocklebur; [8]): 0; Redroot pigweed plant response rating (pigweed; [2]): 0; Redroot pigweed plant response rating (pigweed; [3]): 0; Plant response rating, Redroot pigweed (pigweed; [8]): 0; Sugarbeets plant response rating (sugar beet; [2]): 0; Sugarbeets plant response rating (sugar beet; [3]): 0; Plant response rating, Sugarbeets (sugar beet; [8]): 0; Barnyardgrass plant response rating (bamyardgrass; Pre-emergence, Rate 1000 g/ha, scale 0 to 10 (0 no effect, 10 complete control)): 0
CCc1nc(C)c(C(C)n2c(=O)on(C(=O)N(c3ccc(F)cc3)C(C)C)c2=O)s1 (stereo not drawn) [Compound 449] | 2 | 3 | 0 | 0 | 0 | 0 | 2 | 0 | 0 | 3 | 0 | 0 | 0 | 0 | 0 | 0 | 0 | 0 | 0 | 0 | Cocklebur plant response rating (cocklebur; [12]): 0; Redroot pigweed plant response rating (pigweed; [2]): 4; Plant response rating, Redroot pigweed (pigweed; [11]): 0; Redroot pigweed plant response rating (pigweed; [12]): 0; Sugarbeets plant response rating (sugar beet; [2]): 3; Plant response rating, Sugarbeets (sugar beet; [11]): 0; Sugarbeets plant response rating (sugar beet; [12]): 0; Plant response rating, Barnyardgrass (0 to 10 scale, 0 is no effect, 10 is complete control) (bamyardgrass; [13]): 0
CC(C)N(C(=O)n1oc(=O)n(CO)c1=O)c1ccc(Cl)cc1 [Compound 457] | 0 | 0 | 0 | 0 | 0 | 0 | 0 | 0 | 0 | 0 | 0 | 0 | 0 | 0 | 0 | 0 | 0 | 0 | 0 | 0 | Cocklebur plant response rating (cocklebur; [12]): 0; Plant response rating, Redroot pigweed (pigweed; [11]): 0; Redroot pigweed plant response rating (pigweed; [12]): 0; Plant response rating, Sugarbeets (sugar beet; [11]): 0; Sugarbeets plant response rating (sugar beet; [12]): 0; Plant response rating, Barnyardgrass (0 to 10 scale, 0 is no effect, 10 is complete control) (bamyardgrass; [13]): 0
CC[Si](C)(C)Cn1c(=O)on(C(=O)N(c2ccc(Cl)cc2)C(C)C)c1=O [Compound 460] | 0 | 0 | 0 | 0 | 0 | 0 | 1 | 0 | 0 | 0 | 0 | 0 | 0 | 0 | 0 | 0 | 0 | 0 | 0 | 0 | Cocklebur plant response rating (cocklebur; [12]): 0; Plant response rating, Redroot pigweed (pigweed; [11]): 0; Redroot pigweed plant response rating (pigweed; [12]): 0; Plant response rating, Sugarbeets (sugar beet; [11]): 0; Sugarbeets plant response rating (sugar beet; [12]): 0; Plant response rating, Barnyardgrass (0 to 10 scale, 0 is no effect, 10 is complete control) (bamyardgrass; [13]): 0
CC(C)N(C(=O)n1oc(=O)n(COC(=O)C(C)(C)C)c1=O)c1ccc(F)cc1 [Compound 462] | 0 | 0 | 0 | 0 | 0 | 0 | 0 | 0 | 0 | 0 | 0 | 0 | 0 | 0 | 0 | 0 | 0 | 0 | 0 | 0 | Cocklebur plant response rating (cocklebur; [12]): 0; Plant response rating, Redroot pigweed (pigweed; [11]): 0; Redroot pigweed plant response rating (pigweed; [12]): 0; Plant response rating, Sugarbeets (sugar beet; [11]): 0; Sugarbeets plant response rating (sugar beet; [12]): 0; Plant response rating, Barnyardgrass (0 to 10 scale, 0 is no effect, 10 is complete control) (bamyardgrass; [13]): 0
COC(OC)C(C)n1c(=O)on(C(=O)N(c2ccc(F)cc2)C(C)C)c1=O (stereo not drawn) [Compound 471] | 0 | 0 | – | 0 | 0 | 0 | 2 | 10 | 10 | 10 | 0 | 0 | 2 | 2 | 4 | 0 | 0 | 0 | 0 | 0 | Cocklebur plant response rating (cocklebur; [12]): 0; Plant response rating, Redroot pigweed (pigweed; [11]): 10; Redroot pigweed plant response rating (pigweed; [12]): 0; Plant response rating, Sugarbeets (sugar beet; [11]): 0; Sugarbeets plant response rating (sugar beet; [12]): 0; Plant response rating, Barnyardgrass (0 to 10 scale, 0 is no effect, 10 is complete control) (bamyardgrass; [13]): 0
